Values joined by “and” are separate entries in the source; they are usually repeats but may differ in a detail not shown here. Equal values may be shown once.
Tests used:
Format in all cases: in vivo, Cryptotis parva
[1] = test system: CIS-induced vomiting in the Least Shrew; experiment: THC and SR141716A on CIS (10 mg/kg)-induced vomiting, acute and delayed phase; conditions: CIS 10 mg/kg i.p., Δ^9-THC 2.5 mg/kg i.p., SR141716A 2 mg/kg i.p.
[2] = test system: Fos; experiment: Fos expression in the dorsal vagal complex resulting from CIS-induced vomiting
Procedure: After the appropriate time period for acute or delayed phase vomiting, shrews were anesthetized with a lethal dose of pentobarbital (100 mg/kg) and perfused transcardially via blunted needle with a peristaltic pump. The shrew was perfused with ice cold 4% paraformaldehyde and 5% picric acid in pH 7.4, 0.1 M phosphate buffer (10 min). Brains were removed and stored in 30% sucrose in 0.1 M PB overnight, then embedded in blocks of 12% gelatin in 30% sucrose/PB. The blocks were postfixed for 3 hr in 2% paraformaldehyde/PB, then rinsed and immersed in 30% sucrose/PB until they sank (usually 1-2 hr). The brain block was cut sagittally on a freezing benchtop microtome (Leica) at 30 μm into 5 series, and stored in PB with 0.03% sodium azide.
Immunolabeling was accomplished by blocking a free-floating series with 10% normal horse serum (NHS) and 3% hydrogen peroxide in PB with 0.3% Tri-ton X-100 (TX) for 30 min. After rinsing in PB, tissue was put in sheep anti-Fos polyclonal antibody (Chemicon/Millipore, Temecula, Calif.; 1:600), with 5% NHS and 0.3% TX in PB, and incubated for about 42 hr at room temperature (RT) with gentle shaking. After rinsing in PB, the tissue was placed in biotinylated donkey anti-sheep IgG secondary antibody (Jackson Immunoresearch, West Grove, Pa.; 1:600) diluted in the same diluent described for the primary antibody, and the tissue incubated at RT with shaking for 75 min Tissue was then rinsed and incubated for 60 min in HRP-conjugated avidin-biotin complex (Vector Labs, Burlingame, Calif.; Vectastain kit diluted 1:2) in PB. Tissue was then rinsed twice in PB, then once in imidazole-acetate buffer (0.1 M, pH 7.4), then reacted for 6 min in 0.0006% hydrogen peroxide with 2% nickel ammonium sulfate-enhanced diaminobenzidine (DAB, 0.05% in 0.1 M imidazole-acetate buffer). All reagents for DAB processing were purchased from Sigma-Aldrich. […]

[3] = test system: CIS-induced emesis in the Least Shrew; experiment: Tropisetron, Δ^9-THC and dexamethasone alone or in combination against CIS (20 mg/kg)-induced emesis, 60 min
Procedure: Briefly, all animals were randomly divided into two groups. On the test day, shrews were habituated to the laboratory environment for at least 1 hr prior to experimentation. […] All drugs were administered at a volume of 0.1 ml/10 g body weight. Immediately following the second injection, each shrew was placed in the observation cage, and both the number of animals vomiting per group and the frequency of vomiting (oral ejections of food or liquid) were recorded for the next 60 min
Poisson regression and logistic regression analyses were employed for two-way analysis of vomiting frequency and protection from emesis, respectively. […] Data regarding the frequency of emesis were analyzed by the Kruskal-Wallis nonparametric one-way analysis of variance (ANOVA), and post hoc analysis by Dunn's multiple comparisons test. The incidence of emesis (number of animals vomiting) was analyzed by Fisher's exact test to determine whether there were differences between groups, and when appropriate, pairwise comparisons were also made. A p value of<0.05 was necessary to achieve statistical significance.

[4] = 1 mg/kg i.p., administered alone
[5] = 5 mg/kg i.p., administered alone
[6] = Δ^9-THC 1 mg/kg with 0.1 mg/kg tropisetron
[7] = Δ^9-THC 5 mg/kg with 0.025 mg/kg tropisetron
[8] = Δ^9-THC 5 mg/kg with 0.1 mg/kg tropisetron
[9] = Δ^9-THC 5 mg/kg with 0.25 mg/kg tropisetron

SMILES: CCCCCc1cc(O)c2c(c1)OC(C)(C)[C@@H]1CCC(C)=C[C@@H]21 [Δ^9-THC, Δ^9-tetrahydrocannabinol]
- Number vomited per total in group ([1]; Acute phase): 1/8
- Number vomited per total in group ([1]; Delayed phase): 2/9
- number of Fos-immunopositive nuclei vs vehicle injections ([2]; acute phase of CIV, NTS, AP and DMNX): significantly (P<0.05) reduced
- number of Fos-immunopositive nuclei vs vehicle-injected animals ([2]; delayed phase, NTS and DMNX): significantly fewer
- reduction in frequency of CIS-induced emesis ([3]; 0.25 mg/kg i.p., administered alone): 59.3%
- reduction in frequency of CIS-induced emesis ([3]; 0.5 mg/kg i.p., administered alone): 66.7%
- reduction in frequency of CIS-induced emesis [3, 4]: 83.7%
- reduction in percentage of shrews vomiting in response to CIS [3, 4]: 64%
- reduction in percentage of shrews vomiting in response to CIS ([3]; 2.5 mg/kg i.p., administered alone): 83.3% and 83%
- reduction in frequency of CIS-induced emesis [3, 5]: 96.7%
- reduction in percentage of shrews vomiting in response to CIS [3, 5]: 92% and 91.6%
- reduction in percentage of shrews vomiting in response to CIS ([3]; 10 mg/kg i.p., administered alone): 100%
- additive or synergistic effect on percentage of animals vomiting ([3]; tested combinations of Δ^9-THC and tropisetron): no additive or synergistic antiemetic effects
- reduction in frequency of vomiting ([3]; Δ^9-THC 0.25 mg/kg coadministered with 5 mg/kg DEX): 55.5%
- reduction in percentage of shrews vomiting in response to CIS ([3]; Δ^9-THC 0.25 mg/kg in shrews pretreated with 5 mg/kg DEX): 42%
- reduction in frequency of CIS-induced emesis ([3]; Δ^9-THC 0.25 mg/kg with 0.025 mg/kg tropisetron): 72.6%
- reduction in frequency of CIS-induced emesis ([3]; Δ^9-THC 0.25 mg/kg with 0.1 mg/kg tropisetron): 69.7%
- reduction in frequency of CIS-induced emesis ([3]; Δ^9-THC 0.5 mg/kg with 0.025 mg/kg tropisetron): 56.1%
- reduction in frequency of CIS-induced emesis ([3]; Δ^9-THC 0.5 mg/kg with 0.1 mg/kg tropisetron): 74.6%
- reduction in frequency of CIS-induced emesis ([3]; Δ^9-THC 1 mg/kg with 0.025 mg/kg tropisetron): 61.6%
- reduction in frequency of CIS-induced emesis [3, 6]: 88%
- reduction in number of shrews vomiting [3, 6]: 77%
- reduction in frequency of CIS-induced emesis ([3]; Δ^9-THC 1 mg/kg with 0.25 mg/kg tropisetron): 91%
- reduction in percentage of shrews vomiting in response to CIS ([3]; Δ^9-THC 2.5 mg/kg with DEX 0.25 mg/kg): 77%
- reduction in percentage of shrews vomiting in response to CIS ([3]; Δ^9-THC 2.5 mg/kg with DEX 1 mg/kg): 92%
- reduction in percentage of shrews vomiting in response to CIS ([3]; Δ^9-THC 2.5 mg/kg with DEX 5 mg/kg): 79%
- reduction in percentage of shrews vomiting in response to CIS ([3]; Δ^9-THC 2.5 mg/kg with DEX 10 mg/kg): 77%
- reduction in percentage of shrews vomiting in response to CIS ([3]; Δ^9-THC 2.5 mg/kg with DEX 20 mg/kg): 50%
- reduction in frequency of CIS-induced emesis [3, 7]: 86.3%
- reduction in percentage of shrews vomiting in response to CIS [3, 7]: 75%
- reduction in frequency of CIS-induced emesis [3, 8]: 97.7%
- reduction in percentage of shrews vomiting in response to CIS [3, 8]: 88%
- reduction in frequency of CIS-induced emesis [3, 9]: 100%
- reduction in percentage of shrews vomiting in response to CIS [3, 9]: 100%
- reduction in percentage of shrews vomiting in response to CIS ([3]; Δ^9-THC 5 mg/kg with DEX 0.25 mg/kg): 83%
- reduction in percentage of shrews vomiting in response to CIS ([3]; Δ^9-THC 5 mg/kg with DEX 1 mg/kg): 92%
- reduction in percentage of shrews vomiting in response to CIS ([3]; Δ^9-THC 5 mg/kg with DEX 5 mg/kg): 77%
- reduction in percentage of shrews vomiting in response to CIS ([3]; Δ^9-THC 5 mg/kg with DEX 10 mg/kg): 92%
- reduction in percentage of shrews vomiting in response to CIS ([3]; Δ^9-THC 5 mg/kg with DEX 20 mg/kg): 77%
- reduction in percentage of shrews vomiting in response to CIS ([3]; Δ^9-THC 10 mg/kg with DEX 0.25 mg/kg): 92%
- reduction in percentage of shrews vomiting in response to CIS ([3]; Δ^9-THC 10 mg/kg with DEX 1 mg/kg): 83%
- reduction in percentage of shrews vomiting in response to CIS ([3]; Δ^9-THC 10 mg/kg with DEX 5 mg/kg): 67%
- reduction in percentage of shrews vomiting in response to CIS ([3]; Δ^9-THC 10 mg/kg with DEX 10 mg/kg): 92%
- reduction in percentage of shrews vomiting in response to CIS ([3]; Δ^9-THC 10 mg/kg with DEX 20 mg/kg): 75%
- combination efficacy in reducing the frequency of emesis ([3]; Δ^9-THC 0.25 and 0.5 mg/kg combined with tropisetron 0.025 and 0.1 mg/kg): significantly greater additive efficacy
- effect on frequency of emesis ([3]; Δ^9-THC combined with 1 mg/kg or 5 mg/kg tropisetron): failed to produce significant reductions
- additive or synergistic antiemetic activity ([3]; Δ^9-THC combined with DEX, at the doses tested): no significant additive or synergistic antiemetic activity

— patent US20110093959A1, “CRYPTOTIS PARVA SCREENING MODEL FOR ANTIEMETIC POTENTIAL” (priority 2008, published 2011)
